Where two headings read alike, the source gives them in different places.
Key:
[1] = test system: T. gondii tachyzoite intracellular proliferation in HFFs; test: Anti-proliferation activity of licarin-B (qPCR); assay type: cell-based, Toxoplasma gondii; conditions: Toxoplasma gondii, 0.4 μg/mL, 24 h
Method: DMEM without drugs was used as a parasite control. […] After 24 h, the cells were washed twice with PBS, and total genomic DNA from the cells was obtained as described in a previous study ([Zhang J.L. et al., 2019]). […] The results represent the means ± standard deviations (SD) from at least three independent experiments. The EC50 of licarin-B for tachyzoite growth inhibition was plotted as a function of the compound concentration via non-linear curve analysis using SPSS 19.0 software (SPSS Inc., Chicago, IL, United States). The results of the anti-invasion and anti-proliferation tests, the in vivo assays of the survival rate and parasite burden and data comparisons between the parasite control and treatment groups were statistically analyzed by one-way analysis of variance (ANOVA) using SPSS software.

[2] = test system: T. gondii invasion of HFFs; test: Anti-invasion assessment in vitro (qPCR); assay type: cell-based, Toxoplasma gondii; conditions: Toxoplasma gondii, 0.4 μg/mL, 2 h of infection, read-out: Anti-invasion inhibition rate
Method: Human foreskin fibroblasts were seeded in 6-well plates and incubated with different concentrations of licarin-B (4.5, 9, 13.5, 18, or 22.5 μg/mL), sulfadiazine (0.4 μg/mL, as a positive control) or without drugs in DMEM supplemented with 1% FBS and then infected with 3 × 10^6 fresh parasites per well. The anti-invasion capability of licarin-B was determined by qPCR after 2 h of infection, as described in a previous study ([Zhang J.L. et al., 2019]). Triplicate independent experiments were performed.

HFF cells = test: Cytotoxicity assay (CCK-8); assay type: cell-based, Human
Method: In brief, HFFs (1 × 10^4 cells/well) were seeded in 96-well plates in a monolayer and incubated with different concentrations of the compounds in DMEM with 1% FBS; DMEM without compound was used as a control. After 24 h, CCK-8 solution (Biomake, United States) was added, and absorbance was measured at 450 nm using a Multiskan GO instrument (Thermo Fisher Scientific, MA, United States). The cell viability values are expressed as percentages of the control value (considered as 100% survival). […] Triplicate independent experiments were performed.

[3] = test system: T. gondii tachyzoites (strain RH) in HFFs; test: In vitro screening of anti-T. gondii activity (Giemsa staining, qPCR); assay type: cell-based, Toxoplasma gondii; conditions: 24 h; for inhibition at 20 µg/mL: 20 μg/mL
Method: Human foreskin fibroblasts were seeded in 6-well plates and infected with 3 × 10^4 fresh T. gondii tachyzoites. After 8 h, the natural compounds in DMEM supplemented with 1% FBS were added. Sulfadiazine and pyrimethamine were included as positive drug controls. After incubation for 24 h, the cells were washed twice with PBS, stained with Giemsa, and observed by light microscopy. In addition, total DNA was isolated from the cells using DNAiso Reagent (Takara), and a 529-bp repeat element was amplified by quantitative polymerase chain reaction (qPCR) with the following primers: Tox-F (5′-AGGAGAGATATCAGGACTGTAG-3′), Tox-R (5′-GCGTCGTCTCGTCTAGATCG-3′), and the Taqman probe Tox-TP (6-Fam CCGGCTTGGCTGCTTTTCCT BHQ1), as described in a previous study ([Zhang J.L. et al., 2019]). The inhibition rates against T. gondii proliferation for the natural compounds at concentrations with no HFF toxicity were calculated, and the inhibition rate in each treatment group was presented as the % of the control group. The experiment was repeated three times.

[4] = 80 μg/mL, T. gondii proliferation in HFFs
[5] = Toxoplasma gondii, read-out: Mean inhibition rate (% of control)
[6] = Toxoplasma gondii, T. gondii proliferation in HFFs, read-out: Mean inhibition rate (% of control)
[7] = Toxoplasma gondii, 4 μg/mL, T. gondii proliferation in HFFs, read-out: Mean inhibition rate (% of control)

Nc1ccc(S(=O)(=O)Nc2ncccn2)cc1 [Sulfadiazine, reference compound]
inhibition at 0.4 µg/mL [1]: 40.8%
inhibition at 0.4 µg/mL [2]: 56.5%

O=C(/C=C/c1ccc(O)c(O)c1)O[C@@H]1C[C@](O)(C(=O)O)C[C@@H](O)[C@H]1O [Chlorogenic acid, chlorogenic acid]
Natural compound concentration range with no toxicity to HFF cells (HFF cells; human, 24 h): 0.01 to 400 µg/mL
inhibition at 400 µg/mL ([3]; Toxoplasma gondii, 400 μg/mL, T. gondii proliferation in HFFs, read-out: Mean inhibition rate (% of control)): 34.6 ± 2.77%

licorice glycosides
Mean inhibition rate (% of control) [3, 4]: 35.93 ± 4.78%

COc1cc2c(=O)c(-c3ccc(O)cc3)coc2cc1O [Glycitein, glycitein]
Natural compound concentration range with no toxicity to HFF cells (HFF cells; CCK-8, 24 h, DMEM with 1% FBS): 0.01 to 40 µg/mL
inhibition at 40 µg/mL ([3]; Toxoplasma gondii, 40 μg/mL, T. gondii proliferation in HFFs, read-out: Mean inhibition rate (% of control)): 8.11 ± 2.19%

CC1(C)O[C@H]2CC(=O)OC[C@]23[C@H]2CC[C@@]4(C)[C@H](c5ccoc5)OC(=O)[C@H]5O[C@]54[C@]2(C)C(=O)C[C@@H]13 [Limonin, limonin]
Natural compound concentration range with no toxicity to HFF cells (HFF cells; human, 24 h): 0.01 to 80 µg/mL
inhibition at 80 µg/mL ([3]; Toxoplasma gondii, 80 μg/mL, T. gondii proliferation in HFFs, read-out: Mean inhibition rate (% of control)): 72.2 ± 9.78%

COc1c(/C=C/C(=O)c2ccc(O)cc2)ccc(O)c1CC=C(C)C [Licochalcone C, licochalcone C]
Mean inhibition rate (% of control) ([3]; 4 μg/mL, T. gondii proliferation in HFFs): 54.91 ± 4.85%

C=CCc1cc(OC)c2c(c1)OCO2 [Myristicin, myristicin]
Natural compound concentration range with no toxicity to HFF cells (HFF cells; CCK-8, 24 h, DMEM with 1% FBS): 0.01 to 40 µg/mL
inhibition at 40 µg/mL [3, 5]: 22.3 ± 3.46%

O=C(O)[C@H](O)c1ccccc1 [D-mandelic acid]
Natural compound concentration range with no toxicity to HFF cells (HFF cells; CCK-8, 24 h, DMEM with 1% FBS): 0.01 to 80 µg/mL
Mean inhibition rate (% of control) [3, 4]: 9.30 ± 3.76%

Cc1ccc(C(C)C)c(O)c1 [Thymol, thymol]
Natural compound concentration range with no toxicity to HFF cells (HFF cells; human, 24 h): 0.01 to 16 µg/mL
inhibition at 16 µg/mL ([3]; Toxoplasma gondii, 16 μg/mL, T. gondii proliferation in HFFs, read-out: Mean inhibition rate (% of control)): 25.7 ± 2.31%

CC1(C)CC[C@]2(C(=O)O)CC[C@]3(C)C(=CC[C@@H]4[C@@]5(C)C[C@@H](O)[C@H](O)C(C)(C)[C@@H]5CC[C@]43C)[C@@H]2C1 [Maslinic acid, maslinic acid]
Natural compound concentration range with no toxicity to HFF cells (HFF cells; CCK-8, 24 h, DMEM with 1% FBS): 0.01 to 4 µg/mL
inhibition at 4 µg/mL [3, 5]: 65.4 ± 4.53%

O=C(O)[C@@H](O)c1ccccc1 [L-mandelic acid]
Natural compound concentration range with no toxicity to HFF cells (HFF cells; CCK-8, 24 h, DMEM with 1% FBS): 0.01 to 80 µg/mL
Mean inhibition rate (% of control) [3, 4]: 11.87 ± 2.84%

C/C=C/c1cc(OC)c2c(c1)C(C)C(c1ccc(O)c(OC)c1)O2 (stereo not drawn) [Dehydrodiisoeugenol, dehydrodiisoeugenol]
Mean inhibition rate (% of control) [3, 4]: 8.14 ± 2.15%

O=c1c(-c2ccc(O)cc2)coc2cc(O)cc(O)c12 [Genistein, genistein]
Natural compound concentration range with no toxicity to HFF cells (HFF cells; CCK-8, 24 h, DMEM with 1% FBS): 0.01 to 40 µg/mL
inhibition at 40 µg/mL [3, 5]: 22.3 ± 5.91%

COc1c(/C=C/C(=O)c2ccc(O)cc2)ccc(O)c1O [Licochalcone B]
Mean inhibition rate (% of control) ([3]; 16 μg/mL, T. gondii proliferation in HFFs): 51.67 ± 6.71%

CCCCCCCCCCCCCC(=O)OC [Methyl myristate, methyl myristate]
Natural compound concentration range with no toxicity to HFF cells (HFF cells; human, 24 h): 0.01 to 160 µg/mL
inhibition at 160 µg/mL ([3]; Toxoplasma gondii, 160 μg/mL, T. gondii proliferation in HFFs, read-out: Mean inhibition rate (% of control)): 7.65 ± 2.64%

CCCCCCCCCCCCCC(=O)O [Myristic acid, myristic acid]
Natural compound concentration range with no toxicity to HFF cells (HFF cells; CCK-8, 24 h, DMEM with 1% FBS): 0.01 to 20 µg/mL
inhibition at 20 µg/mL [3, 6]: 26.3 ± 1.32%

O=C(/C=C/c1ccc(O)cc1)c1ccc(O)cc1O [Isoliquiritigenin, isoliquiritigenin]
Natural compound concentration range with no toxicity to HFF cells (HFF cells; human, 24 h): 0.01 to 4 µg/mL
inhibition at 4 µg/mL [3, 7]: 42.8 ± 7.92%

O=c1c(-c2ccc(O)cc2)coc2cc(O[C@@H]3O[C@H](CO)[C@@H](O)[C@H](O)[C@H]3O)cc(O)c12 [Genistin, genistin]
Natural compound concentration range with no toxicity to HFF cells (HFF cells; CCK-8, 24 h, DMEM with 1% FBS): 0.01 to 32 µg/mL
inhibition at 32 µg/mL ([3]; Toxoplasma gondii, 32 μg/mL, T. gondii proliferation in HFFs, read-out: Mean inhibition rate (% of control)): 26.3 ± 3.54%

CC1=CC(=O)C(C(C)C)CC1 (stereo not drawn) [Piperitone, piperitone]
Natural compound concentration range with no toxicity to HFF cells (HFF cells; human, 24 h): 0.01 to 20 µg/mL
inhibition at 20 µg/mL [3, 6]: 31.1 ± 1.97%

COc1cc(O)ccc1/C=C/C(=O)c1ccc(O)cc1 [Echinatin, echinatin]
Natural compound concentration range with no toxicity to HFF cells (HFF cells; CCK-8, 24 h, DMEM with 1% FBS): 0.01 to 4 µg/mL
inhibition at 4 µg/mL [3, 7]: 63.1 ± 10.7%

Source: article PMC8226262, “Licarin-B Exhibits Activity Against the Toxoplasma gondii RH Strain by Damaging Mitochondria and Activating Autophagy” (Frontiers in Cell and Developmental Biology, 2021)
